# Measured values published in patent US20160003808A1, “MOLECULAR TARGETS AND COMPOUNDS, AND METHODS TO IDENTIFY THE SAME, USEFUL IN THE TREATMENT OF DISEASES ASSOCIATED WITH EPITHELIAL MESENCHYMAL TRANSITION” (GALAPAGOS NV, priority 2013, published 2016).
# Experiments:
# Fibronectin (FN) = assay: EMT on target screen, FN read-out; type: cell-based, human; conditions: for OT FN Screen Z-score 2: as E11, duplicate 2; for Both (shRNA is a hit again in both OT assays, Yes/No): on target validation, Table 16; for OT FN Screen Z-score 1: robust Z-score, HBEC donor Br299, duplicate 1, cut-off Z ≦ −1.25
# MMP10 = assay: EMT on target screen, MMP10 read-out; type: cell-based, human; conditions: for OT MMP10 Screen Z-score 2: as E13, duplicate 2; for OT MMP10 Screen Z-score 1: robust Z-score, HBEC donor Br299, duplicate 1, cut-off Z ≦ −1.25
# HBEC [1] = system: HBEC
# HBEC [2] = assay: ATPlite secondary toxicity assay
# Text: In addition, a second toxicity assay was developed using the ATPlite (Perkin Elmer) assay to evaluate possible toxicity caused by target viruses. With this assay ATP, which is produced by metabolically active cells, reacts with luciferase and D-luciferin to emit light. This assay is based on the luciferase-mediated and ATP-dependent conversion of D-luciferin into oxyluciferin resulting in emission of light. The emitted light, measured as luminescence, is proportional to the ATP concentration in the sample and thus to the number of viable cells.
# A staurosporin concentration curve (two-fold dilution ranging from 1 to 0.03 μM) was added to each cell plate as a reference for toxicity and the ATPlite read-out was performed.
# The data after log transformation and robust Z-score normalization based on negatives was used for the analysis of the results.
# HBEC [3] = assay: CellTiter-Blue (CTB) cell viability assay in on target screen
compound,measurement,setting,value
73 (GAAACCATCCTTTCTTGAA; chemistry not given here) [compound 73],OT FN Screen Z-score 2,Fibronectin (FN),-2.91
same,"Both (shRNA is a hit again in both OT assays, Yes/No)",Fibronectin (FN),no
same,OT FN Screen Z-score 1,Fibronectin (FN),-2.09
same,OT MMP10 Screen Z-score 2,MMP10,0.06
same,OT MMP10 Screen Z-score 1,MMP10,-0.19
same,OT CTB assay Z-score 1,HBEC [1],-1.31
same,OT CTB assay Z-score 2,HBEC [1],-2.09
74 (AGACCTGGTCTACATCGAC; chemistry not given here) [compound 74],OT FN Screen Z-score 2,Fibronectin (FN),-4.17
same,"Both (shRNA is a hit again in both OT assays, Yes/No)",Fibronectin (FN),no
same,OT FN Screen Z-score 1,Fibronectin (FN),-2.80
same,OT MMP10 Screen Z-score 2,MMP10,-2.12
same,OT MMP10 Screen Z-score 1,MMP10,-2.88
same,OT CTB assay Z-score 1,HBEC [1],-8.40
same,OT CTB assay Z-score 2,HBEC [1],-6.74
75 (TCGCTAGGTATGAATAACC; chemistry not given here) [compound 75],OT FN Screen Z-score 2,Fibronectin (FN),-2.58
same,"Both (shRNA is a hit again in both OT assays, Yes/No)",Fibronectin (FN),yes
same,OT FN Screen Z-score 1,Fibronectin (FN),-2.04
same,OT MMP10 Screen Z-score 2,MMP10,-0.75
same,OT MMP10 Screen Z-score 1,MMP10,0.15
same,OT CTB assay Z-score 1,HBEC [1],-0.46
same,OT CTB assay Z-score 2,HBEC [1],-2.90
CN[C@@H]1C[C@H]2O[C@@](C)([C@@H]1OC)n1c3ccccc3c3c4c(c5c6ccccc6n2c5c31)C(=O)NC4 [staurosporin],toxicity,HBEC [2]; 0.6 μM staurosporin treatment,30%
same,average Z-score,"HBEC [2]; 0.6 μM staurosporin, robust Z-score on negatives",−5.5
same,luminescence at highest concentration of staurosporin used,HBEC [2]; concentration curve 1 to 0.03 μM,decreased the luminescence to near background signal
same,average Z-score of CTB data,"HBEC [3]; 0.03 μM staurosporin, lowest concentration of the standard curve",within the same range as the control panel and the trigger only samples
same,Z-score of CTB data,HBEC [3]; 0.06 μM staurosporin,decreased clearly
